Assay results published in patent US9409952B2, “Peptide-compound cyclization method” (Chugai Seiyaku Kabushiki Kaisha, priority 2011, dated 2016).
Like-named read-outs stand apart in the source and are kept apart here. Starred links: 1 amine or outer side, 2 acyl side, 3 side chain; linkers in the order of their positions; H or OH if unused. Positions of bridges follow the written chain, without caps; N, C: chain ends. Non-standard residues stand in square brackets, D forms with d. Residues, ends and D or L forms follow the SMILES beside them. *: point of attachment. Phe(4-CF3) = N[C@@H](Cc1ccc(C(F)(F)F)cc1)C(=O)O; NMePhe(3-Cl) = CN[C@@H](Cc1cccc(Cl)c1)C(=O)O; NMeF = CN[C@@H](Cc1ccccc1)C(=O)O; NMeI = CC[C@H](C)[C@H](NC)C(=O)O; NMeβAla = CN(CCC(=O)[*:2])[*:1]; Aoc(2) = CCCCCC[C@H](N)C(=O)O; NMeL = CN[C@@H](CC(C)C)C(=O)O; NMeV = CN[C@H](C(=O)O)C(C)C; NMeA = CN[C@@H](C)C(=O)O; Piperidide = C1CCN(*)CC1; β3hA = C[C@H](N)CC(=O)O; Sar = CNCC(=O)O; tBu = CC(C)(C)*

Key:
[1] = PAMPA (parallel artificial membrane permeability assay); format: in vitro ADME; details: PAMPA
Method in brief: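 Artificial membrane was 10% (w/v) egg lecithin plus 0.5% (w/v) cholesterol in dodecane on a PVDF filter. A 10 mM DMSO stock was added at 0.5% (v/v) to donor buffer (50 mM MOPSO, pH 6.5, 5.0% glycocholic acid). After 18 h at 37 °C, LC/MS or LC/UV gave donor and acceptor levels for Pe.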

[2] = Metabolic stability in human hepatic microsome; format: in vitro ADME
[3] = membrane permeation rate (Pe), 50 mM MOPSO buffer pH 6.5 with 5.0% glycocholic acid, 37° C., 18 hours, read-out: iPAMPA Pe
[4] = microsomes, pH 7.4, human hepatic microsome, NADPH(+), read-out: CL NADPH(+)
[5] = human, microsomes, pH 7.4, CL NADPH(+)

| Papp at 18 hours, 50 µM ([1]; pH 6.5) | microsomal CLint at 1 uM [2, 5] | Compound | Papp at 18 hours, 50 µM [1, 3] | microsomal CLint at 1 uM [2, 4] | microsomal CLint at 1 uM ([2]; human, liver microsomes, pH 7.4, human hepatic microsome, NADPH(+), read-out: CL NADPH(+)) |
| --- | --- | --- | --- | --- | --- |
|  |  | CC(C)C[C@@H]1NC(=O)[C@H]([C@@H](C)O)NC(=O)[C@H](CC(C)C)N(C)C(=O)[C@H](Cc2ccccc2)N(C)C(=O)[C@H](CC(C)C)N(C)C(=O)C[C@@H](C(=O)N2CCCCC2)NC(=O)[C@H](CC(C)C)N(C)C1=O [DP-722] ([NMeL][NMeF][NMeL]TL[NMeL]D-Piperidide; lactam N-7) | 45 ×10⁻⁶ cm/s | 311 µL/min/mg |  |
|  |  | CC[C@H](C)[C@H]1C(=O)N[C@@H](CC(C)C)C(=O)N(C)[C@@H](C)C(=O)N(C)[C@@H](Cc2ccccc2)C(=O)NCC(=O)N[C@@H]([C@@H](C)O)C(=O)N[C@@H](Cc2ccccc2)C(=O)N(C)[C@@H](CC(C)C)C(=O)N2CCC[C@H]2C(=O)N[C@H](C(=O)N2CCCCC2)CC(=O)N[C@H](C(C)C)C(=O)N[C@@H](CC(C)C)C(=O)N1C [DP-218] ([dV]L[NMeI]L[NMeA][NMeF]GTF[NMeL]PD-Piperidide; lactam N-12) | 33 ×10⁻⁶ cm/s |  | 18 µL/min/mg |
|  |  | CC(C)C[C@@H]1NC(=O)[C@@H](C(C)C)NC(=O)C[C@H](C)NC(=O)[C@H](CC(C)C)N(C)C(=O)[C@H](Cc2ccccc2)N(C)C(=O)[C@H](CC(C)C)N(C)C(=O)[C@H](Cc2ccc(C(F)(F)F)cc2)NC(=O)[C@H](C)N(C)C(=O)[C@H]([C@@H](C)O)NC1=O [DP-790] (cyclo(LT[NMeA][Phe(4-CF3)][NMeL][NMeF][NMeL][β3hA][dV])) | 56 ×10⁻⁶ cm/s | 40 µL/min/mg |  |
|  |  | CC(C)C[C@H]1C(=O)N[C@@H](COC(C)(C)C)C(=O)N[C@@H](C)CC(=O)N[C@H](C(C)C)C(=O)N(C)[C@@H](Cc2cccc(Cl)c2)C(=O)N(C)[C@@H](C)C(=O)N(C)[C@@H](CC(C)C)C(=O)N[C@@H]([C@@H](C)O)C(=O)N(C)[C@@H](C)C(=O)N1C [DP-801] (cyclo([NMeA][NMeL]S(tBu)[β3hA][dV][NMePhe(3-Cl)][NMeA][NMeL]T)) | 60 ×10⁻⁶ cm/s | 133 µL/min/mg |  |
| 37 ×10⁻⁶ cm/s | 119 µL/min/mg | CCCCCC[C@@H]1NC(=O)[C@H](Cc2ccccc2)N(C)C(=O)[C@H](C)N(C)C(=O)C[C@H](C)NC(=O)[C@H](C(C)C)N(C)C(=O)[C@H](Cc2ccccc2)N(C)C(=O)[C@H](COC(C)(C)C)NC(=O)[C@H](C)N(C)C(=O)CN(C)C(=O)[C@H]([C@@H](C)O)NC(=O)[C@H](CC(C)C)N(C)C1=O [DP-775] (cyclo([Aoc(2)][NMeL]T[Sar][NMeA]S(tBu)[NMeF][NMeV][β3hA][NMeA][NMeF])) |  |  |  |
|  |  | CC[C@H](C)[C@H](NC(=O)[C@@H](NC(=O)[C@H](CC(C)C)N(C)C(=O)[C@@H](NC(=O)[C@@H]1CC(=O)N(C)[C@@H](C)C(=O)N[C@@H](CC(C)C)C(=O)N(C)[C@@H](Cc2ccccc2)C(=O)N[C@@H](CC(C)C)C(=O)N(C)CC(=O)N(C)[C@@H](CC(C)C)C(=O)N[C@@H]([C@@H](C)CC)C(=O)N(C)[C@@H](CC(C)C)C(=O)N1)[C@@H](C)O)C(C)C)C(=O)N1CCCCC1 [DP-940] ([NMeA]L[NMeF]L[Sar][NMeL]I[NMeL]DT[NMeL]VI-Piperidide; lactam N-9) | 0.14 ×10⁻⁶ cm/s | 37 µL/min/mg |  |
|  |  | CC[C@H](C)[C@@H]1NC(=O)[C@H](Cc2ccccc2)NC(=O)[C@H]([C@@H](C)O)NC(=O)[C@H](CC(C)C)NC(=O)CCN(C)C(=O)C[C@@H](C(=O)N2CCCCC2)NC(=O)[C@H](CC(C)C)NC(=O)[C@H](Cc2ccccc2)N(C)C(=O)[C@H](Cc2ccccc2)NC(=O)[C@H](CC(C)C)NC1=O [DP-424] ([NMeβAla]LTFILF[NMeF]LD-Piperidide; lactam N-10) | 46 ×10⁻⁶ cm/s | 135 µL/min/mg |  |
| 3 ×10⁻⁶ cm/s | 13 µL/min/mg | CC(C)C[C@H]1C(=O)N[C@@H](C)C(=O)N(C)[C@@H](C)C(=O)N[C@@H](C)CC(=O)N(C)[C@@H](C)C(=O)N[C@@H]([C@@H](C)O)C(=O)N(C)CC(=O)N(C)[C@@H](Cc2ccccc2)C(=O)N(C)[C@@H](Cc2ccccc2)C(=O)N(C)[C@@H](C)C(=O)N2CCC[C@H]2C(=O)N1C [DP-765] (cyclo(A[NMeA][β3hA][NMeA]T[Sar][NMeF][NMeF][NMeA]P[NMeL])) |  |  |  |
